Counter-ions that a name gives are not always drawn. Where a SMILES comes first, the peptide text is derived from it. The star is where a group is joined. pNA = O=[N+]([O-])c1ccc(N*)cc1; Tos = Cc1ccc(S(=O)(=O)*)cc1; Cbz = O=C(OCc1ccccc1)*; Bz = O=C(c1ccccc1)*
T1: bovine trypsin (Bos taurus, UniProt P00760)
T1 construct: 1.8 NF/ml of bovine trypsin
T1 sequence (P00760 24-246): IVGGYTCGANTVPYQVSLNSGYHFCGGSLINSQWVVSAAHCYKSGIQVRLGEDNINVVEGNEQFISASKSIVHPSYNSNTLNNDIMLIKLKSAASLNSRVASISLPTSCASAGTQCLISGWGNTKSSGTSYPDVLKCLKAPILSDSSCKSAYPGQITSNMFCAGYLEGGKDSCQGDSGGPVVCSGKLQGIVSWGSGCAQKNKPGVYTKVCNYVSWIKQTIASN


Tests used:
[1] = target: batroxobin (thrombin-like enzyme from venom of Bothrops moojeni) (Bothrops atrox, UniProt P04971); format: biochemical; settings: pH 8.4
human thrombin coagulase = human thrombin coagulase (Homo sapiens, UniProt P00734); assay: Enzymatic release of p-nitroaniline from substrate by human thrombin coagulase (staphylo-thrombin); format: biochemical; settings: substrate concentration 10^-4 M; pH 8.4, ionic strength 0.15, 37° C
human thrombin [2] = target: T2, human thrombin (Homo sapiens, UniProt P00734); assay: Km and vmax from Lineweaver-Burk diagram, human thrombin; format: biochemical; settings: ionic strength 0.15, pH 8.4, 37° C; for Km: tris-imidazole buffer, graphically from Lineweaver-Burk diagram; for vmax: value marked NIH
T2 construct: 0.56 NIH/ml of human thrombin
Experimental: (§1) As is evident from equation (2) constants Km and k3 determine the activity of the enzyme substrate for a given enzyme. For determining these constants the following procedure is followed:
(§2) The enzyme and the substrate are mixed in a buffer solution, and the reaction is followed spectrophotometrically for 2 to 30 minutes. The concentration of substrate [S] is varied, whereas the enzyme concentration [E] is kept constant. If the extinction (OD) (= optical density) is plotted in a co-ordinate system as a function of time, a curve is obtained the tangent of which (difference in extinction per minute, Δ OD/minute, from which the quantity in μmoles of pNA/min (v) can be calculated) at time zero corresponds to the ideal course of the hydrolysis. By means of this tangent the initial rate of the hydrolysis can be determined.
Km and vmax were determined for the enzymes by means of the LineweaverBurk equation (the Lineweaver-Burk diagram is shown in FIG. 7 of the drawings attached to the specification). […] According to the same principle Km and vmax were determined for the other enzymes. All determinations were carried out in trisimidazole buffer at an ionic strength of 0.15 and a pH of 8.4 at 37° C.

bovine trypsin = target: T1, bovine trypsin; assay: Km and vmax from Lineweaver-Burk diagram, bovine trypsin; format: biochemical; settings: value marked NF, ionic strength 0.15, pH 8.4, 37° C
Experimental: as §1, §2
(§3) If 1/v is plotted against 1/[S], a Lineweaver-Burk diagram (cf. "Kurzes Lehrbuch der Biochemie" by P. KARSON, Georg Thieme-Verlag, Stuttgart, 1967., p. 70) is obtained from which vmax and Km can be determined graphically. [formula] were determined with N^α-Cbo-Gly-Pro-Arg-pNA.HCl (substrate according to Example 1) for human thrombin, human plasmin and bovine trypsin. Km and vmax were determined for the enzymes by means of the LineweaverBurk equation (the Lineweaver-Burk diagram is shown in FIG. 7 of the drawings attached to the specification). […]

human thrombin [3] = target: T2, human thrombin; assay: Enzymatic release of split product NH2-R2 from chromogenic/fluorogenic substrate by human thrombin; format: biochemical; settings: in words, from Table 1
Experimental: The degree of the enzymatic hydrolysis of the substrate, which is proportional to the quantity of p-Nitroaniline formed, can be easily determined by spectrophotometric measurement at 405 nm. […] The conditions are practically the same for the other substrates carrying a p-nitroanilino group as a chromogenic group. The spectrophotometric measurement was therefore, carried out in all cases at 405 nm.
The mixture was pre-incubated for 2 minutes at 37° C. […] The increase in the absorption was measured spectrophotometrically at 405 nm and continuously followed by means of a recording device. The measuring results listed in Tables 1 and 2 were all obtained under the test conditions defined above. The quantity of the formed split product NH2 --R^2 is a measure for the susceptibility of the substrate to the enzymes. […] For determining the quantity (nanomole) of p-napthylamine and 4-methoxy-β-naphthylamine (substrates XII to XV, XVIII and XIX), respectively, formed per minute the samples were irradiated in a fluorescence photometer with light having a wave length of 350 nm. The quantity of the formed split product was determined by measuring the intensity of the light emitted at 420 nm.

Solubility in water = format: physicochemical; settings: for solubility: water
human plasmin = target: T3, human plasmin (Homo sapiens, UniProt P00747); assay: Km and vmax from Lineweaver-Burk diagram, human plasmin; format: biochemical; settings: value marked CU, ionic strength 0.15, pH 8.4, 37° C
T3 construct: 0.4 CU/ml of human plasmin
Experimental: as §1, §2, §3

human ecarin-thrombin = target: T4, human ecarin-thrombin (Homo sapiens, UniProt P00734); assay: Enzymatic release of p-nitroaniline from substrate by human ecarin-thrombin; format: biochemical; settings: substrate concentration 10^-4 M; pH 8.4, ionic strength 0.15, 37° C
T4 construct: 0.28 NIH/ml of human ecarin-thrombin

[4] = substrate: Cc1ccc(S(=O)(=O)NCC(=O)N2CCC[C@H]2C(=O)N[C@@H](CCCNC(=N)N)C(=O)Nc2ccc([N+](=O)[O-])cc2)cc1; assay: Km and vmax from Lineweaver-Burk diagram, human plasmin; format: biochemical; settings: other: human plasmin, tris-imidazole buffer, ionic strength 0.15, pH 8.4, 37° C
Experimental: as §1, §2, §3

[5] = substrate: N=C(N)NCCC[C@H](NC(=O)[C@@H]1CCCN1C(=O)CNC(=O)OCc1ccccc1)C(=O)Nc1ccc([N+](=O)[O-])cc1; assay: as above; format: biochemical; settings: other: human plasmin, tris-imidazole buffer, ionic strength 0.15, pH 8.4, 37° C
Experimental: as §1, §2, §3

Sequence of batroxobin (thrombin-like enzyme from venom of Bothrops moojeni) (P04971 25-255 limits assumed): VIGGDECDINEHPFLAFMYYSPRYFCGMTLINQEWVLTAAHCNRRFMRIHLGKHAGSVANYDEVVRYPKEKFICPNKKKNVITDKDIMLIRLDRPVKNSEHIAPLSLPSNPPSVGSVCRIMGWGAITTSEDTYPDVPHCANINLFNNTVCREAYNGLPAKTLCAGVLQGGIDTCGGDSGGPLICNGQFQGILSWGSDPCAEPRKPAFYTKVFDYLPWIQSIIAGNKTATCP

| Molecule | Quantity of p-nitroaniline enzymatically split off from the substrate in 1 minute by the quantity of batroxobin corresponding to 1 NIH [1] | Quantity of p-nitroaniline enzymatically split off from the substrate in 1 minute by the quantity of human thrombin coagulase corresponding to 1 NIH (human thrombin coagulase) | Km (human thrombin [2]) | vmax (human thrombin [2]) | vmax (bovine trypsin) | susceptibility to human thrombin compared with N^α -Bz-Phe-Val-Arg-pNA.HCl (human thrombin [3]) | solubility (Solubility in water) | vmax (human plasmin) | Quantity of p-nitroaniline enzymatically split off from the substrate in 1 minute by the quantity of human ecarin-thrombin corresponding to 1 NIH (human ecarin-thrombin) | further results |
| --- | --- | --- | --- | --- | --- | --- | --- | --- | --- | --- |
| N=C(N)NCCC[C@H](NC(=O)[C@@H]1CCCN1C(=O)CNC(=O)OCc1ccccc1)C(=O)Nc1ccc([N+](=O)[O-])cc1 [Substrate I, N^α -Cbo-Gly-Pro-Arg-pNA.HCl] (Cbz-Gly-Pro-Arg-pNA) | 15.81 nmol | 575 nmol | 57.1 µM | 0.0534 µmol/L | 0.0427 µmol/L | much higher | > 4000 µg/mL | 0.673 µmol/L | 246.4 nmol | solubility in water relative to Bz-Phe-Val-Arg-pNA.HCl (Solubility in water; ratio to prior art thrombin substrate): 4 times |
| CC(C)COC(=O)NCC(=O)N1CCC[C@H]1C(=O)N[C@@H](CCCNC(=N)N)C(=O)Nc1ccc([N+](=O)[O-])cc1 [Substrate XI, n^α -isobutyloxycarbonyl-Gly-Pro-Arg-p-Na.HCl] | – | – | – | – | – | much higher | – | – | – | – |
| CC(C)[C@H](NC(=O)[C@H](Cc1ccccc1)NC(=O)c1ccccc1)C(=O)N[C@@H](CCCNC(=N)N)C(=O)Nc1ccc([N+](=O)[O-])cc1 [N^α -Bz-Phe-Val-Arg-pNA . HCl, N^α -Bz-Phe-Val-Arg-pNA.HCl, reference compound] (Bz-Phe-Val-Arg-pNA) | 3.26 nmol | 102 nmol | – | – | – | – | ~1000 µg/mL | – | 30.7 nmol | – |
| Cc1ccc(S(=O)(=O)NCC(=O)N2CCC[C@H]2C(=O)N[C@@H](CCCNC(=N)N)C(=O)Nc2ccc([N+](=O)[O-])cc2)cc1 [Substrate VII, n^α -tos-Gly-Pro-Arg-pNA.HCl] (Tos-Gly-Pro-Arg-pNA) | – | – | 17 µM | 0.0757 µmol/L | 0.0297 µmol/L | much higher | – | 0.618 µmol/L | – | – |
| N=C(N)NCCC[C@H](NC(=O)[C@@H]1CCCN1C(=O)CNS(=O)(=O)c1ccccc1)C(=O)Nc1ccc([N+](=O)[O-])cc1 [Substrate VIII, n^α -benzenesulfonyl-Gly-Pro-Arg-pNA.NCl] | – | – | – | – | – | much higher | – | – | – | – |
| human plasmin (Homo sapiens) (protein, 0.4 CU/ml of human plasmin) chain 1: VVGGCVAHPHSWPWQVSLRTRFGMHFCGGTLISPEWVLTAAHCLEKSPRPSSYKVILGAHQEVNLEPHVQEIEVSRLFLEPTRKDIALLKLSSPAVITDKVIPACLPSPNYVVADRTECFITGWGETQGTFGAGLLKEAQLPVIENKVCNRYEFLNGRVQSTELCAGHLAGGTDSCQGDSGGPLVCFEKDKYILQGVTSWGLGCARPNKPGVYVRVSRFVTWIEGVMRNN chain 2: KVYLSECKTGNGKNYRGTMSKTKNGITCQKWSSTSPHRPRFSPATHPSEGLEENYCRNPDNDPQGPWCYTTDPEKRYDYCDILECEEECMHCSGENYDGKISKTMSGLECQAWDSQSPHAHGYIPSKFPNKNLKKNYCRNPDRELRPWCFTTDPNKRWELCDIPRCTTPPPSSGPTYQCLKGTGENYRGNVAVTVSGHTCQHWSAQTPHTHNRTPENFPCKNLDENYCRNPDGKRAPWCHTTNSQVRWEYCKIPSCDSSPVSTEQLAPTAPPELTPVVQDCYHGDGQSYRGTSSTTTTGKKCQSWSSMTPHRHQKTPENYPNAGLTMNYCRNPDADKGPWCFTTDPSVRWEYCNLKKCSGTEASVVAPPPVVLLPDVETPSEEDCMFGNGKGYRGKRATTVTGTPCQDWAAQEPHRHSIFTPETNPRAGLEKNYCRNPDGDVGGPWCYTTNPRKLYDYCDVPQCAAPSFDCGKPQVEPKKCPGR | – | – | – | – | – | – | – | – | – | Km [4]: 323 µM; Km [5]: 357 µM |
